The values that follow come from patent US20050239844A1, “Composition fo preventing secretion of immunoglobulin e-dependent histamine releasing factor” (KYUNG-LIM LEE, priority 2002, published 2005).

Holding throughout (type): in vivo
One assay has as its system SD mice. As to the kind of experiment: Anaphylaxis reaction caused by C48/80: mortality. The following applies: pantoprazole 10 mg/kg tail vein 30 minutes before C48/80 10 mg/kg tail vein; survival for one hour. The protocol:
SD mice weighing 200-220 g were divided into three groups consisting of a negative control group, a positive control group and a test group, each group consisting of eight animals.
30 minutes after this pretreatment, the negative control group was injected with a phosphate buffer saline through the tail vein, the positive control group and the test group were injected with 10 mg/kg of C48/80 through the tail vein. After the injection, the number of individuals died of anaphylaxis reaction caused by C48/80 was observed. The standard of death and survival was determined by whether or not the animals survive for one hour after C48/80 administration.

In assay [1] the test system is BALBc male mice. Description: Ovalbumin-induced allergic rhinitis: eosinophil number in nasal mucosa (histology). The following applies: under mucosa of anterior inferior turbinate, 400× magnification. The protocol:
3-week-old BALBc male mice weighing 15-25 g were divided into four groups each comprising 6 or 7 animals, and then bred in a specific pathogen-free (SPF) environment for 35 days. In order to induce allergic rhinitis, 10 μg of ovalbumin (grade V, Sigma Chemical Co., Phillipsberg, N.Y.) and 1 mg of aluminum hydroxide (Al(OH)3) gel were mixed with 0.3 ml phosphate buffered saline for at least 30 minutes to prepare an ovalbumin mixture. 0.1 ml of the mixture was injected into the abdominal cavity of the mice, and each at 5, 14 and 21 days later, injected once more into the abdominal cavity. At one week after the final injection into the abdominal cavity (28 days later), 30 μl phosphate buffered saline or a mixture of 100 μg ovalbumin with 30 μl phosphate buffered saline was administered into the nasal cavity using a micropipette. […] The administration of ovalalbumin into the nasal cavity and the pretreatment with the drugs before this administration were performed for 7 days, one time a day, and the next day after the administration for 7 days, the mice of all the groups was euthanized by inhalation with carbonic acid gas. […] The measured results were statistically analyzed by the Mann-Whitney U-test, using SPSS for Windows version 10 (SPSS Inc., Chicago), and were determined to be statistically significant at p<0.05.

For assay [2], the system named is BALBc male mice. As to the kind of experiment: Ovalbumin-induced allergic rhinitis: symptom score. The settings on record: 7 days, sneezing and nose scratching counted for 15 minutes. Here is the method:
3-week-old BALBc male mice weighing 15-25 g were divided into four groups each comprising 6 or 7 animals, and then bred in a specific pathogen-free (SPF) environment for 35 days. In order to induce allergic rhinitis, 10 μg of ovalbumin (grade V, Sigma Chemical Co., Phillipsberg, N.Y.) and 1 mg of aluminum hydroxide (Al(OH)3) gel were mixed with 0.3 ml phosphate buffered saline for at least 30 minutes to prepare an ovalbumin mixture. 0.1 ml of the mixture was injected into the abdominal cavity of the mice, and each at 5, 14 and 21 days later, injected once more into the abdominal cavity. At one week after the final injection into the abdominal cavity (28 days later), 30 μl phosphate buffered saline or a mixture of 100 μg ovalbumin with 30 μl phosphate buffered saline was administered into the nasal cavity using a micropipette. […] Then, in each mouse, the number of expression of characteristic symptoms of allergic rhinitis, i.e., the number of expression of symptoms, such as sneezing and the action of scratching the nose, was measured for 15 minutes after a given period, and their sum was recorded as a symptom score. The symptom score was recorded as the mean of scores measured by two observers, and scores having at least 30% difference between the two observers were excluded.

As for `COc1ccnc(C[S+]([O-])c2nc3ccc(OC(F)F)cc3[nH]2)c1OC` (centres unmarked) [Inventive composition, pantoprazole], the “Mortality (number of dead individuals/number of total individuals)” value in the assay on SD mice is 4/8. Moreover, the “eosinophil number (row printed as Symptom score), Mean” value in the assay with BALBc male mice [1] (pantoprazole 10 mg/kg) worked out at 5.57; with BALBc male mice [1] (pantoprazole 100 mg/kg) it was 4.29. The entries for the “Symptom score, Mean” value in the assay on BALBc male mice [2] (pantoprazole 10 mg/kg into abdominal cavity 30 minutes before nasal ovalbumin) and with BALBc male mice [2] (pantoprazole 100 mg/kg into abdominal cavity 30 minutes before nasal ovalbumin) were 27.29 and 48.00, respectively.
